Laboratory results taken from paper PMC9313566 (Basic & Clinical Pharmacology & Toxicology, 2022).

What follows are compounds tested against haemoglobin (Hb) (Homo sapiens, UniProt P68871+P69905) (assay: SPR).
Sequence of haemoglobin (Hb) (P69905 2-142): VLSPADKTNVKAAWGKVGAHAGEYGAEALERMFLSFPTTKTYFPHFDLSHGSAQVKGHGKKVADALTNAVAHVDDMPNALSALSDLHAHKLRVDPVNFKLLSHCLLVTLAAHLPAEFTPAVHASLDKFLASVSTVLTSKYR
Sequence of haemoglobin (Hb) (P68871 2-147): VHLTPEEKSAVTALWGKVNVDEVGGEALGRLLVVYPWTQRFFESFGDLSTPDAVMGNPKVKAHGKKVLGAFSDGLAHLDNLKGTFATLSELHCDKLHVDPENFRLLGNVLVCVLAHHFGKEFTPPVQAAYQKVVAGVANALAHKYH
Type: binding
In the case of C/C1=C\CC[C@H](C)C(=O)C[C@@H](C(C)C)C(=O)C1 [curdione], the Kd is reported as 3.8 µM.
With CC(C)=C1C/C=C(\C)CC/C=C(\C)CC1=O [germacrone] the Kd was 75.4 µM.
C/C1=C\Cc2c(C)coc2C/C(C)=C/CC1 [furanodiene] was tested, and the Kd was 18.2 µM.
C=C[C@]1(C)CC[C@@H](C(=C)C)C[C@H]1C(=C)C [β-elemene] showed a Kd of 2.27 µM.
